# Tests used:
# [1] = test system: radiation induced fibrosarcoma (RIF) tumors; experiment: BPD-mediated vascular PDT of RIF tumors: explicit dosimetry and tumor regrowth (cure index); format: in vivo, mice
# Experimental: RIF cells were cultured and 30 μl were injected at 1×10^7 cells/ml intradermally over the right shoulders of 6 to 8 weeks old female C3H mice (NCI-Frederick, Frederick, Maryland), as described previously^10-12. Animals were under the care of the University of Pennsylvania Laboratory Animal Resources. All studies were approved by the University of Pennsylvania Institutional Animal Care and Use Committee. Tumors were treated at a size of ˜3 to 5 mm in diameter. Fur within the region of tumor inoculation was clipped prior to injection of cells, and the treatment area was depilated with Nair (Church & Dwight Co., Inc., Ewing, New Jersey) at least 24 h before measurements. Mice were provided a chlorophyll-free (alfalfa-free) rodent diet (Harlan Laboratories Inc., Indianapolis, Indiana) starting at least 10 days prior to treatment to eliminate the fluorescence signal from chlorophyll-breakdown products, which have a similar emission range to the BPD fluorescence spectra used to determine the concentration of BPD in the tumor. During the delivery of PDT, mice were kept under anesthesia on a heat pad at 38° C.
# PDT was delivered using an optical fiber with a microlens attachment coupled to a diode laser. A 690 nm laser (B&W Tek Inc., Newark, Delaware) was used for PDT after a 15 min drug-light interval. The in-air fluence rate (ϕair) is defined as the calculated irradiance determined by the laser power divided by the treatment area (1 cm diameter spot size). The in-air fluence was calculated by multiplying the in-air fluence rate by the treatment time. […]
# The in vivo tissue oxygen partial pressure pO2 was measured during PDT treatment using a phosphorescence-based […] (OxyLite Pro, Oxford Optronix, Oxford, United Kingdom). […] The ROS concentration ([ROS]) was calculated by multiplying the measured pO2 with the […] solubility in tissue, which is 1.295 μM/mmHg.^5 Measured [ROS]0 and [ROS](t) were used to calculate reacted oxygen species using the macroscopic singlet oxygen model.^14,15 […]
# Tumor volumes were measured daily after PDT. […]
# [2] = as printed in b218; cited from earlier work
structure (smiles),measurement,setting,value
"C=Cc1c(C)c2cc3nc(cc4[nH]c(cc5nc(cc1[nH]2)C(C)=C5CCC(=O)O)c(CCC(=O)OC)c4C)[C@@]1(C)C3=CC=C(C(=O)OC)[C@H]1C(=O)OC [BPD, benzoporphyrin derivative monoacid ring A]",change of BPD concentration before vs after PDT treatment,"[1]; in tumor, FIG. 18",not significant changes
same,[ROS]rx threshold dose smaller than value for conventional BPD-mediated PDT using DLI of 3 hrs,"[1]; mouse, in vivo",about 4.3 times
same,threshold dose for [ROS]rx,"[1]; vascular BPD-PDT, DLI 15 min",0.23 mM
same,β,[2],11.9 µM
